# Measured values as given in ChEMBL document CHEMBL1909046, “DrugMatrix in vitro pharmacology data”.
# Columns and labels:
# [1] = target: T1, Alpha-1D adrenergic receptor (Homo sapiens, UniProt P25100); type: cell membranes, HEK293, Membrane; further: in other assays of this panel Not Active means under 50% inhibition at 10 µM
# T1 sequence (P25100 whole entry): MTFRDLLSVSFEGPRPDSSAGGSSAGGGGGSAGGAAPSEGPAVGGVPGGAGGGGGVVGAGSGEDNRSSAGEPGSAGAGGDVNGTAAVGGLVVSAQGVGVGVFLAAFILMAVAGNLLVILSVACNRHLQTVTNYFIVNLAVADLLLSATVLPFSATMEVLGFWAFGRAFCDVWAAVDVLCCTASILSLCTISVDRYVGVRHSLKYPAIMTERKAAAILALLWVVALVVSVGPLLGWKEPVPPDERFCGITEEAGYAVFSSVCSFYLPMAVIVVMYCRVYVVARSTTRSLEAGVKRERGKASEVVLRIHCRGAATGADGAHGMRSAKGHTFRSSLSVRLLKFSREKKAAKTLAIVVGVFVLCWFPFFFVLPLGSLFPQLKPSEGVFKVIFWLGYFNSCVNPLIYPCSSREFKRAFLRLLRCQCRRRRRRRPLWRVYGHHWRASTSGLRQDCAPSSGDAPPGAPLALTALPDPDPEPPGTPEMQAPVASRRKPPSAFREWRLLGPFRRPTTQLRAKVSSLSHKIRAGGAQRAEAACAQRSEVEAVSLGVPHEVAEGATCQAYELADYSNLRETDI
# [2] = DRUGMATRIX: Atrial Natriuretic Factor (ANF) radioligand binding (ligand: [125I] ANF (rat)); type: cell membranes, Cavia porcellus, Dunkin-Hartley, Adrenal gland, Membrane; conditions: Not Active = under 50% inhibition at 10 µM
# [3] = DRUGMATRIX: Calcium Channel Type L, Dihydropyridine radioligand binding (ligand: [3H] Nitrendipine); type: cell membranes, Rattus norvegicus, Wistar, Cerebral cortex, Membrane; conditions: Not Active = under 50% inhibition at 10 µM
# [4] = target: T2, 5-hydroxytryptamine receptor 2C (Homo sapiens, UniProt P28335); test: DRUGMATRIX: Serotonin (5-Hydroxytryptamine) 5-HT2C radioligand binding (ligand: [3H] Mesulergine); type: cell membranes, CHO-K1, Membrane; conditions: Not Active = under 50% inhibition at 10 µM
# T2 sequence (P28335 whole entry): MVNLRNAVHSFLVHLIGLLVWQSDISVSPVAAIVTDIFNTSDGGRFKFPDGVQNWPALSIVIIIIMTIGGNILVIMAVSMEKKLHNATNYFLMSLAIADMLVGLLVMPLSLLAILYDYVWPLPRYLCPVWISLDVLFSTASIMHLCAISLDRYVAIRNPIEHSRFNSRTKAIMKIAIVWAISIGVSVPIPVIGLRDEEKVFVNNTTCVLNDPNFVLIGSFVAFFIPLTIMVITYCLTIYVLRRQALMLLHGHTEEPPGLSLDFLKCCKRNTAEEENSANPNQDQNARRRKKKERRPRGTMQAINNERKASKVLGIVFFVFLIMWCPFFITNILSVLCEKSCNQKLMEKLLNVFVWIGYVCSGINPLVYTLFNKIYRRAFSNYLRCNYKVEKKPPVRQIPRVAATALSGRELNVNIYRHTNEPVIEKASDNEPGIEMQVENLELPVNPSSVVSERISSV
# [5] = target: Sigma non-opioid intracellular receptor 1 (Homo sapiens, UniProt Q99720); test: DRUGMATRIX: Sigma1 radioligand binding (ligand: [3H] Haloperidol); type: cell membranes, Jurkat, Membrane; conditions: jurkat; Not Active = under 50% inhibition at 10 µM
# Chain of Sigma non-opioid intracellular receptor 1 (Q99720 whole entry): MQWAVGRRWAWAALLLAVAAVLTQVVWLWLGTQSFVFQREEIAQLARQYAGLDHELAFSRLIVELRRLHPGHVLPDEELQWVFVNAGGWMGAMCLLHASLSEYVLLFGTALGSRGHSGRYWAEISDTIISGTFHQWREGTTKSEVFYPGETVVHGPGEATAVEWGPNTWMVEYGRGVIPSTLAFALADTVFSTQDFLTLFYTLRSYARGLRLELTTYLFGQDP
# Vasopressin V1a receptor = Vasopressin V1a receptor (Homo sapiens, UniProt P37288); type: cell membranes, Membrane; conditions: hek293; further: in other assays of this panel Not Active means under 50% inhibition at 10 µM
# Chain of Vasopressin V1a receptor (P37288 whole entry): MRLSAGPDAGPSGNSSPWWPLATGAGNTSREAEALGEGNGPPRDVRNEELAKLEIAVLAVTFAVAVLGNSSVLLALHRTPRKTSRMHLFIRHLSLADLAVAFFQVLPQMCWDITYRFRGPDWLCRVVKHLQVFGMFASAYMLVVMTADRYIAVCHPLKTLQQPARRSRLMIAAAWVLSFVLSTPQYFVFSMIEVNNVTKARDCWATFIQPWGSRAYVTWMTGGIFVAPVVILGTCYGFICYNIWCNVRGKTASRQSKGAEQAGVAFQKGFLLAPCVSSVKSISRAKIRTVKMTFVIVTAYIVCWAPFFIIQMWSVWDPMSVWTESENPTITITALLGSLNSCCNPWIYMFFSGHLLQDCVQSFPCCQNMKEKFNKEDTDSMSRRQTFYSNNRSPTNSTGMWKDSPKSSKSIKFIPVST
# [6] = DRUGMATRIX: Calcium Channel Type L, Phenylalkylamine radioligand binding (ligand: [3H] (-)-Desmethoxyverapamil (D-888)); type: cell membranes, Rattus norvegicus, Wistar, Brain, Membrane; conditions: Not Active = under 50% inhibition at 10 µM
# [7] = target: C-C chemokine receptor type 2 (Homo sapiens, UniProt P41597); type: cell membranes, CHO-K1, Membrane; conditions: cho-k1; further: in other assays of this panel Not Active means under 50% inhibition at 10 µM
# Chain of C-C chemokine receptor type 2 (P41597 whole entry): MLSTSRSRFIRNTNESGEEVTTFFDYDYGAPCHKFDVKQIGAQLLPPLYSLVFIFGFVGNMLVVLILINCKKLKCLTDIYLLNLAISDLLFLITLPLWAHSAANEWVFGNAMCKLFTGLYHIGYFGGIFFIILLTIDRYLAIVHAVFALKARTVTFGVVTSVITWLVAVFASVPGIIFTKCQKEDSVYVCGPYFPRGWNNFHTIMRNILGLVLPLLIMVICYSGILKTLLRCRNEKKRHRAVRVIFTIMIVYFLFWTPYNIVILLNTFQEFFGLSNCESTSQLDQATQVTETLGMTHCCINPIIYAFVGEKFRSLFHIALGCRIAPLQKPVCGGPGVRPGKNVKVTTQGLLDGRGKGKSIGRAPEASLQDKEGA
# [8] = target: Prostaglandin G/H synthase 1 (Homo sapiens, UniProt P23219); test: biochemical; type: tissue-based, Platelet;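 further: inhibition of COX-1 enzyme activity, with arachidonic acid supplied as substrate; in other assays of this panel Not Active means under 50% inhibition at 10 µM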
# Chain of Prostaglandin G/H synthase 1 (P23219 whole entry): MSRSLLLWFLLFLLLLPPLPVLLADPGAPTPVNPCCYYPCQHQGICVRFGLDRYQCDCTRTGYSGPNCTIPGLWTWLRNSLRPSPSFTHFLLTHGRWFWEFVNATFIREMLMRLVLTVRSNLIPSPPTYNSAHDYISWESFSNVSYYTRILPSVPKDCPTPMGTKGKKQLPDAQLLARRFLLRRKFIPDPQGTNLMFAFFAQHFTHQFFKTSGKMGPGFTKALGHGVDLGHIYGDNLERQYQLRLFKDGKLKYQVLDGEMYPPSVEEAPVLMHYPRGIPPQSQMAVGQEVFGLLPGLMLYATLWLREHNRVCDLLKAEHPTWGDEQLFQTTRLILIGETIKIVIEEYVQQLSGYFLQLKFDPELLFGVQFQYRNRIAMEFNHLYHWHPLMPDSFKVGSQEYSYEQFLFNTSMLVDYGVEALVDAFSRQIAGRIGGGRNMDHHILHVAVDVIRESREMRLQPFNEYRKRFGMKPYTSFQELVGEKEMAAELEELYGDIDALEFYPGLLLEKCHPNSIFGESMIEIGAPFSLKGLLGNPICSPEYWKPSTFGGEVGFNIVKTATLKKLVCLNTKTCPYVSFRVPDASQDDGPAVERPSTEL
# [9] = target: T3, Neuropeptide Y receptor type 1 (Homo sapiens, UniProt P25929); type: cell membranes, Membrane; conditions: sk-n-mc; further: in other assays of this panel Not Active means under 50% inhibition at 10 µM
# T3 sequence (P25929 whole entry): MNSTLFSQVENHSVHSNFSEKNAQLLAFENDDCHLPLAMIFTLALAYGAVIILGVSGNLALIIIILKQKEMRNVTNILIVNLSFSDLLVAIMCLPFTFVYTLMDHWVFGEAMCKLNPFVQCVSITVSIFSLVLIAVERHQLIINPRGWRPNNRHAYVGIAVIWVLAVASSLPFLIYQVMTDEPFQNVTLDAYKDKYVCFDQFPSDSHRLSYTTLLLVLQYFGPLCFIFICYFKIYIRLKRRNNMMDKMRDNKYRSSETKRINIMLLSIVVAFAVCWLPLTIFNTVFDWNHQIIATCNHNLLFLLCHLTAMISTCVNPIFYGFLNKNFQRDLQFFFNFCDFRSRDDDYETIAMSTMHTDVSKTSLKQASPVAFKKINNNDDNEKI
# Progesterone receptor = target: T4, Progesterone receptor (Bos taurus, UniProt Q690N0); test: DRUGMATRIX: Progesterone radioligand binding (ligand: [3H] R-5020); type: tissue-based, Uterus; conditions: Not Active = under 50% inhibition at 10 µM
# T4 sequence (Q690N0 whole entry): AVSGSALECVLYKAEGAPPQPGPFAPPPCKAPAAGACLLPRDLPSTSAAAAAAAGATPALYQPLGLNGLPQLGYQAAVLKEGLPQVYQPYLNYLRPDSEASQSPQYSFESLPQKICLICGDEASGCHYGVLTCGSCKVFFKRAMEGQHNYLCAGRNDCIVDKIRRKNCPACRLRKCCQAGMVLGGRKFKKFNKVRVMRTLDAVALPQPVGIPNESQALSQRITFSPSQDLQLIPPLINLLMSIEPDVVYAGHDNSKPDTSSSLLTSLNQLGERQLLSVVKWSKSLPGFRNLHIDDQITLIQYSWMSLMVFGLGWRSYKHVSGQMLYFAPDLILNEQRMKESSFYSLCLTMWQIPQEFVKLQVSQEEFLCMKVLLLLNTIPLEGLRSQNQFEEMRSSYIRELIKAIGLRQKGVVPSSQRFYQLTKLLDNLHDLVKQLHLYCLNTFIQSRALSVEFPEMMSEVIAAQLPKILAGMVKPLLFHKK
# [10] = target: Mitogen-activated protein kinase 1 (Homo sapiens, UniProt P28482); test: DRUGMATRIX: Protein Serine/Threonine Kinase, ERK2 enzyme inhibition (substrate: Myelin Basic Protein); parameters: species or system Escherichia coli; conditions: Not Active = under 50% inhibition at 10 µM
# Chain of Mitogen-activated protein kinase 1 (P28482 whole entry): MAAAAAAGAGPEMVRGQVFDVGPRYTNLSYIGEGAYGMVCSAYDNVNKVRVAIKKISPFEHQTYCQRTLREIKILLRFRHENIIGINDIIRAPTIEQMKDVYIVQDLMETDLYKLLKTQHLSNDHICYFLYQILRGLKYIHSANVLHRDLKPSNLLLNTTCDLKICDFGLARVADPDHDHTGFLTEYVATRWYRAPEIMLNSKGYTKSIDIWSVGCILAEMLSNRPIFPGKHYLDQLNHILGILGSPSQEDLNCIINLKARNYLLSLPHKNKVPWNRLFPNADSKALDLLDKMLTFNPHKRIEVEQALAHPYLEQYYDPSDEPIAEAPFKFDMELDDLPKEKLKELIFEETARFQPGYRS
# Cytochrome P450 2C19 = Cytochrome P450 2C19 (Homo sapiens, UniProt P33261); conditions: bti-tn-5b1-4; further: in other assays of this panel Not Active means under 50% inhibition at 10 µM
# Chain of Cytochrome P450 2C19 (P33261 whole entry): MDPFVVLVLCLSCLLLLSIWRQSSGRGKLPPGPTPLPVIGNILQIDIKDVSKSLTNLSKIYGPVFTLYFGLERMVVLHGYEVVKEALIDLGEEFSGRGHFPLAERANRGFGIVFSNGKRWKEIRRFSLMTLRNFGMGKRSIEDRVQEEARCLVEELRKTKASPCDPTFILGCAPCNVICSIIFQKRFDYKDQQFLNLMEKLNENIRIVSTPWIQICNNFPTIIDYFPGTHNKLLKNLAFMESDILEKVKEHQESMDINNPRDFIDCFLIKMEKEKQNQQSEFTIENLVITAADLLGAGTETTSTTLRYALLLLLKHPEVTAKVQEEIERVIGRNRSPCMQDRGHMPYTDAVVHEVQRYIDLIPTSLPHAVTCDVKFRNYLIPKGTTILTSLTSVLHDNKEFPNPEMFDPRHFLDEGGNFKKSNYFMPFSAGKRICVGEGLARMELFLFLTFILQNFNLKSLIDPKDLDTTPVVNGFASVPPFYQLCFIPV
Compound,IC50 ([1]; hek293),IC50 [2],Ki [2],IC50 [3],Ki [3],IC50 ([4]; cho-k1),IC50 [5],IC50 (Vasopressin V1a receptor),IC50 [6],Ki [6],IC50 ([8]; platelet),IC50 [9],IC50 (Progesterone receptor),IC50 [10],IC50 (Cytochrome P450 2C19),Ki (Cytochrome P450 2C19),IC50 [7],also measured
CISPLATIN,Not Active,Not Active,Not Active,Not Active,Not Active,Not Active,Not Active,Not Active,Not Active,Not Active,Not Active,Not Active,Not Active,Not Active,Not Active,Not Active,,Ki ([1]; hek293): Not Active; Ki ([4]; cho-k1): Not Active; Ki [5]: Not Active; Ki (Vasopressin V1a receptor): Not Active; IC50 ([7]; read-out: IC50): 18100 nM; Ki ([7]; read-out: Ki): 7010 nM; Ki ([8]; platelet): Not Active; Ki [9]: Not Active; Ki (Progesterone receptor): Not Active; Ki [10]: Not Active
COC(=O)[C@H](c1ccccc1Cl)N1CCc2sccc2C1 [CLOPIDOGREL],Not Active,Not Active,Not Active,Not Active,Not Active,Not Active,Not Active,Not Active,Not Active,Not Active,Not Active,Not Active,Not Active,Not Active,Not Active,Not Active,Not Active,
CN1C[C@H](C(=O)N[C@]2(C)O[C@@]3(O)[C@@H]4CCCN4C(=O)[C@H](Cc4ccccc4)N3C2=O)C=C2c3cccc4[nH]cc(c34)C[C@H]21 [ERGOTAMINE],,Not Active,Not Active,Not Active,Not Active,,Not Active,Not Active,Not Active,Not Active,Not Active,Not Active,Not Active,Not Active,Not Active,Not Active,Not Active,IC50 ([1]; read-out: IC50): 49 nM; Ki ([1]; read-out: Ki): 24 nM; IC50 ([4]; read-out: IC50): 56 nM; Ki ([4]; read-out: Ki): 29 nM
c1ccc2c(c1)cc1ccc3cccc4ccc2c1c34,Not Active,Not Active,Not Active,Not Active,Not Active,Not Active,Not Active,Not Active,Not Active,Not Active,Not Active,Not Active,Not Active,Not Active,Not Active,Not Active,Not Active,
CCOC(=O)c1ccc(N)cc1 [BENZOCAINE],Not Active,Not Active,Not Active,Not Active,Not Active,Not Active,Not Active,Not Active,Not Active,Not Active,Not Active,Not Active,Not Active,Not Active,Not Active,Not Active,Not Active,
Oc1cccc2cccnc12 [OXYQUINOLINE],Not Active,Not Active,Not Active,Not Active,Not Active,Not Active,Not Active,Not Active,Not Active,Not Active,Not Active,Not Active,Not Active,Not Active,Not Active,Not Active,Not Active,
COc1ccc2cc(CC(=O)O)ccc2c1,Not Active,Not Active,Not Active,Not Active,Not Active,Not Active,Not Active,Not Active,Not Active,Not Active,,Not Active,Not Active,Not Active,Not Active,Not Active,Not Active,IC50 ([8]; read-out: IC50): 4110 nM
O=C1CN=C(c2ccccc2)c2cc([N+](=O)[O-])ccc2N1 [NITRAZEPAM],Not Active,Not Active,Not Active,Not Active,Not Active,Not Active,Not Active,Not Active,Not Active,Not Active,Not Active,Not Active,Not Active,Not Active,Not Active,Not Active,Not Active,
CC1=Nc2ccc(Cl)cc2S(=O)(=O)N1 [DIAZOXIDE],Not Active,Not Active,Not Active,Not Active,Not Active,Not Active,Not Active,Not Active,Not Active,Not Active,Not Active,Not Active,Not Active,Not Active,Not Active,Not Active,Not Active,
